Results: US20250170239A1, “CELLULAR REPROGRAMMING BY TARGETING THE GOLGI APPARATUS” (MUSC Foundation for Research Development, priority 2023, published 2025)
Entries after “also recorded” stand apart in the source; their conditions may differ.

How the values were obtained:
Pmel CD8+ T cells = experiment: FACS phenotyping (Tcm, stemness markers) of activated Pmel T cells; assay type: cell-based, mouse
Description: It was next determined if restoring H2S levels in activated T cells would alter their phenotype. To achieve steady-state levels of H2S in the T cell culture media, water-soluble H2S donor GYY4137 that slowly releases sustained levels of H2S up to 7 days in culture was used (Lee Z. W., et al., 2011, PLOS One, 6(6):e21077).

Jurkat cells = conditions: 50 mM H2O2 +/− GYY4137; wildtype vs C51A Prdx4
Experimental: (§1) (FIG. 22A) Pmel T cells were activated for 3 days before treatment with vehicle or 50 mM H2O2 for 6 hrs. Prdx4-Golgi colocalization was assessed by PLA using mouse anti-Giantin and rabbit anti-Prdx4 antibodies. (FIG. 22B) Activated Pmel T cells treated with vehicle or 50 mM H2O2 for 6 hrs or 24 hrs with Monensin (1 mM). PLA assay was performed using anti-Giantin and anti-Prdx4 antibodies. (FIG. 22C) Experimental design using Prdx4-targeted siRNA to silence expression of Prdx4 in Pmel T cells. (FIG. 22D) GM130 expression assessed under control versus Monensin (1 μM) conditions in T cells treated with control-siRNA or Prdx4-siRNA. (FIG. 22E) GM130 expression assessed under control versus 50 mM H2O2 conditions in T cells treated with control-siRNA or Prdx4-siRNA+/−0.5 mM GYY4137. (FIG. 22F) Protein translation assessed in Pmel T cells activated+/−GYY4137 and treated with control-siRNA or Prdx4-siRNA. (FIG. 22G) GM130 expression in Pmel T cells treated with vehicle, GYY4137, or Catalase (10 μg/mL). (FIGS. 22H and 22I) Site directed mutagenesis performed to mutate cysteine-54 of the Prdx4 gene. Prdx4-targeted shRNA was used to knock down expression of Prdx4 in Jurkat T cells, followed by transfection with plasmid containing wildtype or mutated Prdx4. (FIG. 22I) GM130 expression assessed after treatment with 50 mM H2O2+/−GYY4137. […]

[1] = test system: Prdx4-Golgi colocalization; conditions: 50 mM H2O2 24 hrs
Experimental: as §1

Prdx4 knockdown T cells = experiment: Prdx4 siRNA knockdown Pmel T cells under Golgi/oxidative stress; assay type: cell-based, mouse
Experimental: (FIG. 22A) Pmel T cells were activated for 3 days before treatment with vehicle or 50 mM H2O2 for 6 hrs. Prdx4-Golgi colocalization was assessed by PLA using mouse anti-Giantin and rabbit anti-Prdx4 antibodies. (FIG. 22B) Activated Pmel T cells treated with vehicle or 50 mM H2O2 for 6 hrs or 24 hrs with Monensin (1 mM). PLA assay was performed using anti-Giantin and anti-Prdx4 antibodies. (FIG. 22C) Experimental design using Prdx4-targeted siRNA to silence expression of Prdx4 in Pmel T cells. (FIG. 22D) GM130 expression assessed under control versus Monensin (1 μM) conditions in T cells treated with control-siRNA or Prdx4-siRNA. (FIG. 22E) GM130 expression assessed under control versus 50 mM H2O2 conditions in T cells treated with control-siRNA or Prdx4-siRNA+/−0.5 mM GYY4137. (FIG. 22F) Protein translation assessed in Pmel T cells activated+/−GYY4137 and treated with control-siRNA or Prdx4-siRNA. (FIG. 22G) GM130 expression in Pmel T cells treated with vehicle, GYY4137, or Catalase (10 μg/mL). (FIGS. 22H and 22I) Site directed mutagenesis performed to mutate cysteine-54 of the Prdx4 gene. Prdx4-targeted shRNA was used to knock down expression of Prdx4 in Jurkat T cells, followed by transfection with plasmid containing wildtype or mutated Prdx4. (FIG. 22I) GM130 expression assessed after treatment with 50 mM H2O2+/−GYY4137. (FIG. 22J) B16-F10 tumors were injected s.c. into flanks of Pmel mice and grown to ˜100 mm2. TILs and T cells from tumor-draining lymph nodes were isolated via Ficoll spin followed by magnetic bead positive selection. FACS analysis of Prdx4 expression in TILs gated on PD1loLag3lo vs PD1hiLag3hi. (FIG. 22K) Lentiviral supernatant was generated using GFP-tagged control plasmid or GFP-tagged Prdx4-overexpression plasmid. Pmel T cells were transduced with control or Prdx4 lentivirus. Pmel T cells overexpressing Prdx4 and control T cells were treated with H2O2 (50 mM) followed by staining with anti-GM130.
Given the delicate redox balance necessary for the native disulfide bonds, it was postulated that a localized mechanism for the detection and elimination of ROS produced during the oxidative folding process may require Prdx4. Thus, it was hypothesized that ER and Golgi network stress mitigated by H2S is mediated through the Prdx4 localization and activity in these organelles. First, it was established if Prdx4 also localizes within the Golgi apparatus in T cells using a proximity ligation assay (PLA), a tool that allows in situ detection of endogenous proteins with high specificity and sensitivity, with antibodies directed against Giantin (a conserved Golgi membrane protein) and Prdx4. […] Next, using siRNA targeting Prdx4, expression of Prdx4 in CD8+ Pmel T cells was knocked down (FIG. 22C, FIGS. 23A and 23B). The cells were then subjected to conditions of oxidative and Golgi stress in the presence or absence of H2S treatment. […] Then, to determine whether the protective effect of H2S on Golgi stress is dependent on the presence of Prdx4, Golgi stress was induced in the presence or absence of H2S with control (siCtl) and Prdx4 knockdown (siPrdx4) T cells.

Pmel T cells = conditions: activated in presence of H2S donor
Experimental: (§2) Oxygen consumption rate (OCR) and extracellular acidification rate (ECAR) were determined using the Seahorse Xfe96 analyzer (Agilent Technologies, Santa Clara, CA). Briefly, T cells (0.5×10^6/well) were plated on a Cell-Tak coated Seahorse culture plate for 30 min. OCR, a measure of OXPHOS, was analyzed under basal condition, or in response to 1.0 μM oligomycin, 1.0 μM fluoro-carbonyl cyanide phenylhydrazone (FCCP) and 2 μM rotenone, plus 100 nM antimycin A. ECAR, a measure of glycolysis, was measured under basal conditions and in response to glucose (5.5 mM), Oligomycin (1.0 μM), and 2-deoxyglucose (2-DG) (100 mM). All reagents were purchased from Sigma-Aldrich, St. Louis, MO.

human CD19 CAR-T cells = conditions: 3 days IL2 +/− 0.5 mM GYY4137
Experimental: Quantification of oxygen consumption rate (OCR), spare respiratory capacity (SRC), maximal respiration, and basal respiration (n=10 experimental replicates representative of 3 separate experiments). […] Shown is the quantification of mean oxygen consumption rate (OCR), spare respiratory capacity (SRC), maximal respiration, and basal respiration. Data shown represent the mean±SEM and were analyzed by two-sided Student's t-test or one-way ANOVA. ns, p-value >0.05; p-value *≤0.05; **≤0.01; ***≤0.001; ****≤0.0001.
as §2

## C1COCCN1.COc1ccc(P(=S)(S)N2CCOCC2)cc1 (stereo not shown) [GYY4137]
Pmel CD8+ T cells; FACS at day 0, 2, 4, 6, GYY4137 0.5 mM
  maintenance of increase in Tcm phenotype over time: consistently maintained over six days
Pmel CD8+ T cells; GYY4137 0.5 mM, 3 days
  expression of Tcf7 and Sca1 (stemness markers): significantly enhanced the expression of Tcf7 and Sca1
Pmel CD8+ T cells; Pmel T cells activated with gp100 + IL2, GYY4137 0.5 mM, compared to IL2 alone
  Tcm phenotype (CD62L+CD44+ co-expression): significant increase in the Tcm phenotype
Jurkat cells
  protective effect on H2O2-induced Golgi stress (GM130): only observed in Jurkat cells expressing wildtype Prdx4
[1]
  loss of Prdx4 localization within the Golgi under prolonged oxidative stress: loss of colocalization was mitigated
Prdx4 knockdown T cells; 50 mM H2O2 +/− 0.5 mM GYY4137
  GM130 expression under Golgi stress, control (siCtl) T cells: prevented the decrease in GM130 expression
Prdx4 knockdown T cells; 50 mM H2O2 +/− 0.5 mM GYY4137, listed as H2S
  GM130 expression under Golgi stress, Prdx4 knockdown (siPrdx4) T cells: protective effect was absent; also recorded: absent when Prdx4 was knocked down
Prdx4 knockdown T cells; +/− GYY4137
  increase in protein translation, Prdx4 knockdown T cells: not observed
Pmel T cells
  basal respiration: did not alter basal respiration
  maximal respiration: significant increase
  spare respiratory capacity (SRC): significant increase
Human CD19 CAR-T cells
  SRC: significant increase
  maximal respiration: significant increase
